# Entries after “also recorded” stand apart in the source; their conditions may differ. Like-named read-outs stand apart in the source and are kept apart here.
# Experiments:
# PXR receptors = molecular target: T1, PXR receptors (Mus musculus, UniProt O54915); settings: cited from earlier work
# T1 sequence (O54915 1-431): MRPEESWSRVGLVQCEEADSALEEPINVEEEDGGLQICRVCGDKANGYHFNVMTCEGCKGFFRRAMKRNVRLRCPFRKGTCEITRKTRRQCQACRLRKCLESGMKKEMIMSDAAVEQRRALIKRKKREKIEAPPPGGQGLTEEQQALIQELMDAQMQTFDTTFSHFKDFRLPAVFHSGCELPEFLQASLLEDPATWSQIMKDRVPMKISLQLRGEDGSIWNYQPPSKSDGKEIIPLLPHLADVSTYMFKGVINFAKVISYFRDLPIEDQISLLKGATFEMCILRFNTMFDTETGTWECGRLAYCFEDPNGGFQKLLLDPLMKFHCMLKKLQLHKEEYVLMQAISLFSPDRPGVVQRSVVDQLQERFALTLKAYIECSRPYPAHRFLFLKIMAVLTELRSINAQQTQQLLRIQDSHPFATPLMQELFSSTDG
# [1] = rats, from the literature or experience, cited from earlier work
# [2] = tested on: 123 assays completed (panel of sites of drug action and drug toxicity); assay: Molecular pharmacology assay panel (MDS-Pharma Services catalog); settings: for activity in the 123 assays completed: <50% inhibition binned as 0, preliminary test at 30 μM
# estrogen receptor [3] = molecular target: T2, estrogen receptor (Homo sapiens, UniProt P03372); settings: read-out: EC50 stimulation of ER; cited from earlier work
# T2 sequence (P03372 1-595): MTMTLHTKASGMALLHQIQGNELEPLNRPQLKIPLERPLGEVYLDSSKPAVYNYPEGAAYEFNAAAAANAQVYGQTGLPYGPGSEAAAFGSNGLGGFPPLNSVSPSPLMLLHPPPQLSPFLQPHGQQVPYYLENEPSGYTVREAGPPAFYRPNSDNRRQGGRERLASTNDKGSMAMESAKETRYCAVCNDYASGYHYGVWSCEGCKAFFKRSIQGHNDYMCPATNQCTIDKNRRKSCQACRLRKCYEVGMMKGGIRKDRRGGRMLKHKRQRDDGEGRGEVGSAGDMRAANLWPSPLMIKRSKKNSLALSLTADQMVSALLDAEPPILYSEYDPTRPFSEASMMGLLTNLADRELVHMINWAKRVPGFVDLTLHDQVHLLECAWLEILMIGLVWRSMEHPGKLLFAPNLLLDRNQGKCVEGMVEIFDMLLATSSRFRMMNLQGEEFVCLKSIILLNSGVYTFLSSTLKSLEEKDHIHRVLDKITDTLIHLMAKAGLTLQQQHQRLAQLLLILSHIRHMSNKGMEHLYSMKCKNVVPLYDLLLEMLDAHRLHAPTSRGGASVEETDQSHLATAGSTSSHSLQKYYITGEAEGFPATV
# PPARα = molecular target: T3, PPARα (Homo sapiens, UniProt Q07869); settings: cited from earlier work
# T3 sequence (Q07869 1-468): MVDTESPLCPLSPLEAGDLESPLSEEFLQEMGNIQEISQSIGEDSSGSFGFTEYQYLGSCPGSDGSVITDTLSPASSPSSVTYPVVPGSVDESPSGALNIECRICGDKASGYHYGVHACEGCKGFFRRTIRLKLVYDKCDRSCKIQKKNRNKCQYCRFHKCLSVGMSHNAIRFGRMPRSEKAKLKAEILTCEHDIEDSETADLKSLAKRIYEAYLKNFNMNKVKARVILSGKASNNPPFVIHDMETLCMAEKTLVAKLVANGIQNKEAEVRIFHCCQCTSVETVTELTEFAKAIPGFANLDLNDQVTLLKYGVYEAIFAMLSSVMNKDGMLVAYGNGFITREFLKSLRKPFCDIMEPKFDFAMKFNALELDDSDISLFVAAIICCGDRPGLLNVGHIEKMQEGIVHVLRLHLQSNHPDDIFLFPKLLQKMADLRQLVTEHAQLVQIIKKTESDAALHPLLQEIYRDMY
# estrogen receptor [4] = molecular target: T2, estrogen receptor; assay: Molecular pharmacology panel assay: estrogen receptor
# site-2 sodium channel = assay: Molecular pharmacology panel assay: site-2 sodium channel
# [5] = hypertriglyceridemic patients; known side effect; cited from earlier work
Molecule,maximum tolerated dose (MTD) ([1]; subcutaneously in arrachis oil) [mg/kg],activity in the 123 assays completed [2],maximum tolerated dose (MTD) ([1]; oral gavage in 1% NaCMC),also measured
"CC(C)(c1ccc(O)cc1)c1ccc(O)cc1 [BPA, bisphenol A]",150,–,–,activity on PXR (PXR receptors): completely inactive
"C[C@]12CC[C@@H]3c4ccc(OC(=O)c5ccccc5)cc4CC[C@H]3[C@@H]1CC[C@@H]2O [estradiol benzoate, Estradiol benzoate]",2,–,–,–
CCCCC(CC)COC(=O)c1ccccc1C(=O)OCC(CC)CCCC (centres unmarked) [DEHP],–,no activity,"1,000 mg/kg",EC50 (estrogen receptor [3]): ~1000 nM; stimulation of PPARα (PPARα): potently stimulate
C[C@]12CC[C@@H]3c4ccc(O)cc4CC[C@H]3[C@@H]1CC[C@@H]2O [Estradiol],–,–,–,activity on PXR (PXR receptors): completely inactive
CC(C)OC(=O)C(C)(C)Oc1ccc(C(=O)c2ccc(Cl)cc2)cc1 [Fenofibrate],–,–,"1,000 mg/kg",interaction with the estrogen receptor (estrogen receptor [4]): interacted weakly; interaction with the site-2 sodium channel (site-2 sodium channel): interacted weakly
nonylphenol,–,–,–,EC50 (estrogen receptor [3]): ~1000 nM; EC50 (PXR receptors; read-out: EC50 stimulation of PXR receptors): ~500 nM
"CCOC(=O)C(C)(C)Oc1ccc(Cl)cc1 [Clofibrate, clofibrate]",–,no activity,250 mg/kg,–
CC(C)(C)CC(C)(C)c1ccc(O)cc1 [OP],450,–,–,number of assays in which compound interacted ([2]; of the 123 assays conducted): 16
"Cc1ccc(C)c(OCCCC(C)(C)C(=O)O)c1 [Gemfibrozil, gemfibrozil]",–,no activity,300 mg/kg,effect on LDL levels [5]: induce an increase in LDL (low density lipoprotein) levels; also recorded: induces an increase in LDL levels

# Reference: US20030180808A1, “Drug signatures” (priority 2002, published 2003)
